# Read-outs that look alike come from different tables or passages of the source.
# Key:
# bovine opsin = target: T1, bovine opsin (Bos taurus, UniProt P02699); assay: Ligand-binding assay by Trp fluorescence quenching, opsin in ROS disc membranes; conditions: 20 °C, mean of three biological repeats ± s.d.; for EC50: read-out: EC50 of Trp fluorescence quenching at 330 nm (ΔF/F0)
# T1 construct: ROS membranes were isolated from bovine retinas under dim red light; from tissue; host or cells: bovine retina, rod outer segment (ROS) disc membranes, bleached with hydroxylamine
# Experimental: ROS membranes were isolated from bovine retinas under dim red light. To remove membrane associated proteins, ROS membranes were washed with a hypotonic buffer composed of 5 mM bis-tris propane (BTP) and 1 mM EDTA, pH 7.5, followed by gentle homogenization with subsequent centrifugation at 25,000×g for 30 min. This procedure was repeated four times. The final membrane pellet was suspended in 10 mM sodium phosphate buffer, pH 7.0, and 50 mM hydroxylamine to a 3 mg mL^−1 concentration of rhodopsin, placed on ice and illuminated with a 150 Watt bulb for 30 min. Membranes were pelleted by centrifugation at 16,000×g for 5 min and then washed four times with 10 mM sodium phosphate buffer, pH 7.0, and 2% bovine serum albumin followed by 4 washes with 10 mM sodium phosphate buffer, pH 7.0, and two washes with 20 mM BTP, pH 7.5, and 100 mM NaCl. The concentration of opsin was measured with a UV–visible spectrophotometer and quantified using the absorption coefficient ε280 nm = 81,200 M^−1 cm^−1[64].
# Emission spectra were recorded with a PerkinElmer L55 Luminescence Spectrophotometer at 20 °C between 300 and 450 nm after excitation at 295 nm, with excitation and emission slit bands set at 5 and 10 nm, respectively. Changes in Trp fluorescence (ΔF/F0; where ΔF is the difference between the initial Trp fluorescence recorded at 330 nm (F0) and Trp fluorescence recorded at 330 nm at a specified YC-001 concentration) were plotted as a function of the ligand concentration. Binding curves were fitted by the Hill function using Origin software for each compound and the EC50 was calculated. All experimental data were corrected for background and self-absorption of excitation and emission light (inner filter effect).
# mouse P23H opsin = target: T2, mouse P23H opsin (Mus musculus, UniProt P15409, P23H); assay: High-content imaging analysis of P23H opsin immunostaining in NIH3T3-(P23H opsin/GFP) cells; type: cell-based
# T2 construct: expressed in transfected cells
# Experimental: To characterize the effect of active compounds on the localization of P23H-mutant opsin in mammalian cells, an image-based assay was used with cells immunostained for WT or P23H-mutant opsin protein[18]. Briefly, NIH3T3-(P23H opsin/GFP) or NIH3T3-(WT-opsin/GFP) cells were seeded at 5000 cells per well in a 384-well cell-carrier plate (PerkinElmer) and incubated at 37 °C with 5% CO2 for 2 h. Cells were treated with compounds as described for the β-Gal fragment complementation assay and incubated in assay medium for 24 h. The assay medium then was aspirated, and cells were fixed with 4% paraformaldehyde at 20 µL per well for 20 min at RT. Cells were immunostained in one of two ways: cell membranes were either permeabilized with 0.1% Triton X-100 for 15 min or left intact and then were incubated with 10% goat serum (Life Technologies). To detect opsin on the cell plasma membrane only, intact cells were immunostained with 20 µL per well of 20 µg mL^−1 B6-30 anti-rhodopsin antibody that recognizes the N-terminal epitope on the extracellular side of rhodopsin. To detect total opsin, cells were permeabilized with Triton X-100 and immunostained with 50 µg mL^−1 1D4 anti-rhodopsin antibody specific for the C-terminal epitope on the intracellular side of rhodopsin. Opsin immunostaining was visualized by incubating cells with 5 µg mL^−1 Cy3-conjugated goat anti-mouse IgG antibody. Three washes with phosphate-buffered saline (PBS: 10 mM Na2HPO4, 1.8 mM KH2PO4, pH 7.4, 137 mM NaCl, and 2.7 mM KCl) were performed between each step of incubation with antibody. In the last wash with PBS, DAPI was added to each well at 300 nM. Fluorescence images were obtained with the Operetta High Content Imaging System (PerkinElmer) using a ×20 long objective. Five fields were taken of each well for cell images using three channels for fluorescence: GFP (100 ms), Cy3 (300 ms), and DAPI (50 ms). Images were analyzed with Acapella software from the Columbus data storage and analysis system (PerkinElmer)[18]. For cells immunostained with opsin on the non-permeabilized cell membrane only, an average of total fluorescence intensity of Cy3 per cell was used to quantify opsin in each well of the 384-well plate. For cells immunostained with opsin in permeabilized whole cells, an average ratio of Cy3 intensity on the cell plasma membrane (PM) to that of the entire cell (opsin ratio PM-to-total) was calculated for each well of a 384-well plate to quantify opsin transport to the plasma membrane. The plasma membrane was defined within ± 5% of the cell border.
# P23H opsin = target: T3, P23H opsin (Mus musculus, UniProt P15409, P23H); assay: Immunoblot of P23H opsin glycosylation in NIH3T3 cell lysates; type: cell-based; parameters: key to Improved glycosylation: n = no; y = yes; conditions: for Improved glycosylation: P23H opsin; for effect on glycosylation of P23H opsin (in words): immunoblot, PNGaseF, 10 µM YC-001, 5 µM 9-cis-retinal, 10 µM scriptaid
# T3 construct: expressed in transfected cells
# Experimental: NIH3T3-(P23H opsin/GFP) or NIH3T3-(WT-opsin/GFP) cells were seeded in a 48-well plate (Corning Costar) at 3.2 × 10^5 cells per well and incubated at 37 °C with 5% CO2 for 2 h. One hundred-µL of assay medium containing a compound at 5× its final concentration was added to each well. The plate was gently shaken for 5 s before further incubation at 37 °C with 5% CO2 for 24 h. The assay medium then was aspirated, and cells were lysed with 100 µL per well PBS containing 0.1% Triton X-100 and complete protease inhibitor cocktail (Roche, Basel, Switzerland) followed by sonication for 3 s. Protein concentrations were determined with the Bradford assay. For PNGaseF catalyzed deglycosylation, 3 µL of PNGaseF (1500 U, NEB) was added to the cell lysate and the mixture was incubated at room temperature for 1 h before immunoblotting. For NIH3T3-(P23H opsin/GFP) cells, 15 µg of total protein were loaded per well onto an SDS-polyacrylamide gel; whereas for NIH3T3-(WT-opsin/GFP) cells, 5 µg of total protein was loaded per well. Opsin protein was immunostained with 0.2 μg mL^−1 horseradish peroxidase-conjugated 1D4 anti-rhodopsin antibody. Band intensities were measured with ImageJ software (http://imagej.nih.gov/ij/; National the Institutes of Health, Bethesda, MD, USA) and normalized to a glyceraldehyde 3-phosphate dehydrogenase (GAPDH) loading control. Full scans of immunoblotted membranes are shown in Supplementary Fig. 8.
# [1] = cell-surface immunostaining, non-permeabilized, Fig. 2j, read-out: EC50, opsin on the plasma membrane (Opsin INT)
# [2] = ratio of P23H rod opsin fluorescence on plasma membrane to whole cell
# [3] = ratio of P23H rod opsin fluorescence on plasma membrane to whole cell, read-out: Immunostaining HCS MEM-Total ratio EC50
# T1 sequence (P02699 whole entry): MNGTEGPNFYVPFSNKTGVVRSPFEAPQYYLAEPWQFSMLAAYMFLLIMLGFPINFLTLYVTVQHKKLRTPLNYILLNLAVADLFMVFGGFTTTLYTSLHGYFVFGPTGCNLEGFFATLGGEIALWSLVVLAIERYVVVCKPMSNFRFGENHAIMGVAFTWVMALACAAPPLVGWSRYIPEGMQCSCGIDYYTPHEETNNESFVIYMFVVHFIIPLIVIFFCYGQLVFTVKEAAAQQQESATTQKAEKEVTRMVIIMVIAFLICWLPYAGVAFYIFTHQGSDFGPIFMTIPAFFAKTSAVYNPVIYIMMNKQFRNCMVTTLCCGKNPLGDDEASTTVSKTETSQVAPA
Immunostaining HCS MEM-Total ratio Max (fit) (mouse P23H opsin; [2]),"EC50 (mouse P23H opsin; whole-cell immunostaining, Fig. 2l, read-out: EC50, Opsin ratio PM-to-total) [nM]",Improved glycosylation (P23H opsin),effect on glycosylation of P23H opsin (in words) (P23H opsin),EC50 of Trp fluorescence quenching at 330 nm (ΔF/F0) (bovine opsin),Compound,EC50 (bovine opsin) [nM],"A1 (low plateau), Opsin INT (mouse P23H opsin; Fig. 2j)","A2 (high plateau), Opsin INT (mouse P23H opsin; Fig. 2j)","A1 (low plateau), Opsin ratio PM-to-total (mouse P23H opsin; Fig. 2l)","A2 (high plateau), Opsin ratio PM-to-total (mouse P23H opsin; Fig. 2l)","A1 (low plateau), Opsin ratio ER-to-total (mouse P23H opsin; Fig. 2n)","A2 (high plateau), Opsin ratio ER-to-total (mouse P23H opsin; Fig. 2n)",EC50 (mouse P23H opsin; [1]) [nM],EC50 (mouse P23H opsin; [3]) [nM],"EC50 (mouse P23H opsin; whole-cell immunostaining, Fig. 2n, read-out: EC50, Opsin ratio ER-to-total) [nM]"
0.019,1210,y,improvement of glycosylation,,"CC1=C(/C=C/C(C)=C\C=C\C(C)=C\C=O)C(C)(C)CCC1 [9-cis-retinal, reference compound]",1200 ± 100,219,275,0.167,0.186,0.240,0.255,377,,
0.070,,n,does not affect the glycosylation,did not affect Trp fluorescence,"O=C(CCCCCN1C(=O)c2cccc3cccc(c23)C1=O)NO [Scriptaid, reference compound]",,,,,,,,,380,

Compound,Immunostaining HCS MEM-Total ratio Max (fit) (mouse P23H opsin; [2]),"EC50 (mouse P23H opsin; whole-cell immunostaining, Fig. 2l, read-out: EC50, Opsin ratio PM-to-total) [nM]",Improved glycosylation (P23H opsin),effect on glycosylation of P23H opsin (in words) (P23H opsin),EC50 of Trp fluorescence quenching at 330 nm (ΔF/F0) (bovine opsin),EC50 (bovine opsin) [nM],"A1 (low plateau), Opsin INT (mouse P23H opsin; Fig. 2j)","A2 (high plateau), Opsin INT (mouse P23H opsin; Fig. 2j)","A1 (low plateau), Opsin ratio PM-to-total (mouse P23H opsin; Fig. 2l)","A2 (high plateau), Opsin ratio PM-to-total (mouse P23H opsin; Fig. 2l)","A1 (low plateau), Opsin ratio ER-to-total (mouse P23H opsin; Fig. 2n)","A2 (high plateau), Opsin ratio ER-to-total (mouse P23H opsin; Fig. 2n)",EC50 (mouse P23H opsin; [1]) [nM],EC50 (mouse P23H opsin; [3]) [nM],"EC50 (mouse P23H opsin; whole-cell immunostaining, Fig. 2n, read-out: EC50, Opsin ratio ER-to-total) [nM]"
O=C1OCC(c2ccc(Cl)s2)=C1c1cccs1 [YC-001],0.030,,y,improvement of glycosylation,,980 ± 50,218,270,0.172,0.202,0.236,0.248,3220,2750,2140

# Source: paper PMC5958115, “A novel small molecule chaperone of rod opsin and its potential therapy for retinal degeneration” (Nature Communications, 2018)
